Measured values: patent US5571804A, “Cephalosporin antibiotics” (priority 1993, dated 1996)

Key:
[1] = system: Pseudomonas aeruginosa 6065; assay: MIC, two-fold agar dilution; format: cell-based; settings: Muller-Hinton agar, 37° C., 20 hours
E. coli TEM5 3739E = assay: MIC, two-fold agar dilution; format: cell-based; settings: Muller-Hinton agar, 37° C., 20 hours
Staphylococcus aureus 77 = assay: MIC, two-fold agar dilution; format: cell-based; settings: Muller-Hinton agar, 37° C., 20 hours
E. coli TEM1 1193E = assay: MIC, two-fold agar dilution; format: cell-based; settings: Muller-Hinton agar, 37° C., 20 hours
[2] = system: Staphylococcus aureus 241; assay: MIC, two-fold agar dilution; format: cell-based; settings: Muller-Hinton agar, 37° C., 20 hours
Enterobacter cloacae P99 = assay: MIC, two-fold agar dilution; format: cell-based; settings: Muller-Hinton agar, 37° C., 20 hours
[3] = system: Streptococcus laecalis 29212A; assay: MIC, two-fold agar dilution; format: cell-based; settings: Muller-Hinton agar, 37° C., 20 hours
[4] = system: Staphylococcus aureus giorgio; assay: MIC, two-fold agar dilution; format: cell-based; settings: Muller-Hinton agar, 37° C., 20 hours
[5] = system: Klebsiella aerogenes K1 + 1082E; assay: MIC, two-fold agar dilution; format: cell-based; settings: Muller-Hinton agar, 37° C., 20 hours
E. coli TEM7 3457E = assay: MIC, two-fold agar dilution; format: cell-based; settings: Muller-Hinton agar, 37° C., 20 hours
[6] = system: Pseudomonas aeruginosa 1912E; assay: MIC, two-fold agar dilution; format: cell-based; settings: Muller-Hinton agar, 37° C., 20 hours
[7] = system: Staphylococcus epidermidis 887E; assay: MIC, two-fold agar dilution; format: cell-based; settings: Muller-Hinton agar, 37° C., 20 hours
[8] = system: Pseudomonas aeruginosa 10145; assay: MIC, two-fold agar dilution; format: cell-based; settings: Muller-Hinton agar, 37° C., 20 hours
[9] = system: Klebsiella aerogenes SHV-1 1976E; assay: MIC, two-fold agar dilution; format: cell-based; settings: Muller-Hinton agar, 37° C., 20 hours
[10] = system: Staphylococcus aureus 6538P; assay: MIC, two-fold agar dilution; format: cell-based; settings: Muller-Hinton agar, 37° C., 20 hours
[11] = system: Acinetobacter calcoaceticus 15473A; assay: MIC, two-fold agar dilution; format: cell-based; settings: Muller-Hinton agar, 37° C., 20 hours
[12] = system: Salmonella typhimurium 14028A; assay: MIC, two-fold agar dilution; format: cell-based; settings: Muller-Hinton agar, 37° C., 20 hours
E. coli 3190Y = assay: MIC, two-fold agar dilution; format: cell-based; settings: Muller-Hinton agar, 37° C., 20 hours
E. coli 851E = assay: MIC, two-fold agar dilution; format: cell-based; settings: Muller-Hinton agar, 37° C., 20 hours
[13] = system: Citrobacter diversus 2046E; assay: MIC, two-fold agar dilution; format: cell-based; settings: Muller-Hinton agar, 37° C., 20 hours
[14] = system: Serratia marcescens 1826E; assay: MIC, two-fold agar dilution; format: cell-based; settings: Muller-Hinton agar, 37° C., 20 hours
E. coli TEM3 3455E = assay: MIC, two-fold agar dilution; format: cell-based; settings: Muller-Hinton agar, 37° C., 20 hours
Proteus vularis 6059A = assay: MIC, two-fold agar dilution; format: cell-based; settings: Muller-Hinton agar, 37° C., 20 hours
[15] = system: Enterobacter cloacae IND + VE 1194E; assay: MIC, two-fold agar dilution; format: cell-based; settings: Muller-Hinton agar, 37° C., 20 hours
E. coli 10536 = assay: MIC, two-fold agar dilution; format: cell-based; settings: Muller-Hinton agar, 37° C., 20 hours
E. coli TEM9 2639E = assay: MIC, two-fold agar dilution; format: cell-based; settings: Muller-Hinton agar, 37° C., 20 hours
[16] = pharmakinetic variables in SD rats; settings: rat, in vivo, iv, 20 mg/kg
Protocol: The pharmakinetic variables were determined using SD rats (.male.) of a body weight of 230±10g as follows. The "S" compound of each of the Examples was injected to femoral vein of 4-5 rats by 20mg/Kg and then blood was collected from femoral artery in 1, 2.5, 5, 10, 20, 40, 60 and 120 min.

In the case of `Nc1cc(N)nc(SCC2=C(C(=O)O)N3C(=O)[C@@H](NC(=O)/C(=N\O[C@H](C(=O)O)c4ccc(O)c(O)c4)c4csc(N)n4)[C@H]3SC2)n1` [Compound I-1S, 7-[(Z)-2-(aminothiazol-4-yl)-2-(α-carboxy-3,4-dihydroxybenzyloxyimino)acetamido]-3-(4,6-diamino-pyrimidine-2-yl) thiomethyl-3-cephem-4-carboxylate], the “minimal inhibitory concentration (MIC)” value [1] is reported as 0.25, the “minimal inhibitory concentration (MIC)” value (E. coli TEM5 3739E) is reported as 0.063 and the “minimal inhibitory concentration (MIC)” value (Staphylococcus aureus 77) is reported as 8. The “minimal inhibitory concentration (MIC)” value (E. coli TEM1 1193E) was 0.031, the “minimal inhibitory concentration (MIC)” value [2] was 64 and the “minimal inhibitory concentration (MIC)” value (Enterobacter cloacae P99) was 16. The “minimal inhibitory concentration (MIC)” value [3] was 4, the “minimal inhibitory concentration (MIC)” value [4] was 1 and the “minimal inhibitory concentration (MIC)” value [5] was 0.031. The “minimal inhibitory concentration (MIC)” value (E. coli TEM7 3457E) was at most 0.008, the “minimal inhibitory concentration (MIC)” value [6] was 0.25 and the “minimal inhibitory concentration (MIC)” value [7] was 32. The “minimal inhibitory concentration (MIC)” value [8] was 0.13, the “minimal inhibitory concentration (MIC)” value [9] was 0.13 and the “minimal inhibitory concentration (MIC)” value [10] was 2. The “minimal inhibitory concentration (MIC)” value [11] was 0.13, the “minimal inhibitory concentration (MIC)” value [12] was 0.016 and the “minimal inhibitory concentration (MIC)” value (E. coli 3190Y) was 0.031. For the same compound, the “minimal inhibitory concentration (MIC)” value (E. coli 851E) was 0.031, the “minimal inhibitory concentration (MIC)” value [13] was 0.063 and the “minimal inhibitory concentration (MIC)” value [14] was 0.25. The “minimal inhibitory concentration (MIC)” value (E. coli TEM3 3455E) was 0.016, the “minimal inhibitory concentration (MIC)” value (Proteus vularis 6059A) was 0.13 and the “minimal inhibitory concentration (MIC)” value [15] was 2. For the same compound, the “minimal inhibitory concentration (MIC)” value (E. coli 10536) was at most 0.008, the “minimal inhibitory concentration (MIC)” value (E. coli TEM9 2639E) was 0.25 and the AUC at 2 h [16] was 61600 ng·h/mL. It also gave a half-life [16] of 62 min.

For `Cc1c(N)nc(SCC2=C(C(=O)O)N3C(=O)[C@@H](NC(=O)/C(=N\O[C@H](C(=O)O)c4ccc(O)c(O)c4)c4csc(N)n4)[C@H]3SC2)nc1N` [Compound I-2S, 7-[(Z)-2-(aminothiazol-4-yl)-2-(α-carboxyl-3,4-dihydroxybenzyloxyimino)acetamido]-3-(4,6-diamino-5-methylpyrimidine-2-yl)thiomethyl-3-cephem-4-carboxylate], the “minimal inhibitory concentration (MIC)” value [1] was 0.25, the “minimal inhibitory concentration (MIC)” value (E. coli TEM5 3739E) was 0.063 and the “minimal inhibitory concentration (MIC)” value (Staphylococcus aureus 77) was 4. The “minimal inhibitory concentration (MIC)” value (E. coli TEM1 1193E) was 0.031, the “minimal inhibitory concentration (MIC)” value [2] was 64 and the “minimal inhibitory concentration (MIC)” value (Enterobacter cloacae P99) was 8. For the same compound, the “minimal inhibitory concentration (MIC)” value [3] was 4, the “minimal inhibitory concentration (MIC)” value [4] was 1 and the “minimal inhibitory concentration (MIC)” value [5] was 0.031. For the same compound, the “minimal inhibitory concentration (MIC)” value (E. coli TEM7 3457E) was at most 0.008, the “minimal inhibitory concentration (MIC)” value [6] was 0.5 and the “minimal inhibitory concentration (MIC)” value [7] was 16. For the same compound, the “minimal inhibitory concentration (MIC)” value [8] was 0.13, the “minimal inhibitory concentration (MIC)” value [9] was 0.13 and the “minimal inhibitory concentration (MIC)” value [10] was 1. The “minimal inhibitory concentration (MIC)” value [11] was 0.25, the “minimal inhibitory concentration (MIC)” value [12] was 0.016 and the “minimal inhibitory concentration (MIC)” value (E. coli 3190Y) was 0.063. The “minimal inhibitory concentration (MIC)” value (E. coli 851E) was 0.031, the “minimal inhibitory concentration (MIC)” value [13] was 0.016 and the “minimal inhibitory concentration (MIC)” value [14] was 0.25. The “minimal inhibitory concentration (MIC)” value (E. coli TEM3 3455E) was 0.016, the “minimal inhibitory concentration (MIC)” value (Proteus vularis 6059A) was 0.13 and the “minimal inhibitory concentration (MIC)” value [15] was 4. The “minimal inhibitory concentration (MIC)” value (E. coli 10536) was at most 0.008, the “minimal inhibitory concentration (MIC)” value (E. coli TEM9 2639E) was 0.25 and the AUC at 2 h [16] was 54100 ng·h/mL. It also gave a half-life [16] of 55 min.

In the case of `Nc1cc(SCC2=C(C(=O)O)N3C(=O)[C@@H](NC(=O)/C(=N\O[C@@H](C(=O)O)c4ccc(O)c(O)c4)c4csc(N)n4)[C@H]3SC2)ncn1` [Compound I-7R, 7[-(Z)-2-(aminothiazol-4-yl)-2-(α-carboxy-3,4-dihydroxybenzyloxyimino)acetamido]-3-(6-amino-pyrimidine-4-yl)thiomethyl-3cephem-4-carboxylate], the “minimal inhibitory concentration (MIC)” value [1] is reported as 4, the “minimal inhibitory concentration (MIC)” value (E. coli TEM5 3739E) is reported as 0.063 and the “minimal inhibitory concentration (MIC)” value (Staphylococcus aureus 77) is reported as 8. For the same compound, the “minimal inhibitory concentration (MIC)” value (E. coli TEM1 1193E) was 0.13, the “minimal inhibitory concentration (MIC)” value [2] was 128 and the “minimal inhibitory concentration (MIC)” value (Enterobacter cloacae P99) was 8. For the same compound, the “minimal inhibitory concentration (MIC)” value [3] was 4, the “minimal inhibitory concentration (MIC)” value [4] was 2 and the “minimal inhibitory concentration (MIC)” value [5] was 0.25. The “minimal inhibitory concentration (MIC)” value (E. coli TEM7 3457E) was 0.031, the “minimal inhibitory concentration (MIC)” value [6] was 0.25 and the “minimal inhibitory concentration (MIC)” value [7] was 32. The “minimal inhibitory concentration (MIC)” value [8] was 2, the “minimal inhibitory concentration (MIC)” value [9] was 0.25 and the “minimal inhibitory concentration (MIC)” value [10] was 2. For the same compound, the “minimal inhibitory concentration (MIC)” value [11] was 0.25, the “minimal inhibitory concentration (MIC)” value [12] was 0.13 and the “minimal inhibitory concentration (MIC)” value (E. coli 3190Y) was 0.063. For the same compound, the “minimal inhibitory concentration (MIC)” value (E. coli 851E) was 0.13, the “minimal inhibitory concentration (MIC)” value [13] was 0.13 and the “minimal inhibitory concentration (MIC)” value [14] was 0.5. For the same compound, the “minimal inhibitory concentration (MIC)” value (E. coli TEM3 3455E) was 0.031, the “minimal inhibitory concentration (MIC)” value (Proteus vularis 6059A) was 0.25 and the “minimal inhibitory concentration (MIC)” value [15] was 4. For the same compound, the “minimal inhibitory concentration (MIC)” value (E. coli 10536) was 0.016 and the “minimal inhibitory concentration (MIC)” value (E. coli TEM9 2639E) was 0.25.
